How the values were obtained:
Assay type in all cases: cell-based
[1] = test system: SNU638 (gastric cancer); assay: SRB cell growth inhibition assay, SNU638; settings: Homo sapiens, SNU-638, 96 hours, read-out: concentration of the drug to inhibit the cell growth by 50%
From the text: [Worded in the source for another cell line; this cell line is reported under the same test.] (§1) Measurement of the Growth Inhibition Ability Against Cancer Cells
(§2) Human cancer cell strains were obtained through the following paths: OVCAR-3 (ovarian cancer), MCF-7 (hormone dependent breast cancer), MDA-MB-231 (breast cancer), HeLa (cervical cancer), PC3 (prostate cancer), LNCap (prostate cancer), HepG2 (liver cancer), A549 (lung cancer), NCI-H226 (lung cancer), Caki-1 (kidney cancer), SK-MEL-28 (melanoma cancer), HT-29 (colorectal cancer), HCT116 (colorectal cancer) and PANC-1 (pancreas cancer) cells were purchased from American Type Culture Collection (ATCC) (Manassas, Va.); U251(brain tumor) cells were purchased from Riken Institutes, Marunouchi, Tokyo, Japan; MKN-45 (gastric cancer) cells were purchased from DSMZ (Germany); and UMRC2 (kidney cancer) cells were purchased from U.S. National Cancer Institute (Bethesda, Md.).
(§3) MDA-MB-231, HCT116, UMRC2, Caki-1 and PANC-1 cells were cultured in Dulbecco's modified Eagle's medium (“DMEM”, Invitrogen) including 10% FBS, 100 units/mL penicillin-streptomycin (P/S), 10 mM HEPES and 2 mM L-glutamine. All the other cell strains were cultured in RPMI1640 medium (Invitrogen, Carlsbad, Calif.) including 10% fetal bovine serum (FBS), 1 mM sodium pyruvate, 10 mM HEPES, and 100 units/mL penicillin-streptomycin (P/S). All cells were cultured at 37° C. 5% CO2 humid conditions.
(§4) The cell growth inhibition level of the novel compound synthesized using (1S,2R,5S)-5-(6-Aminopurine-9-yl)-4-fluoro-3-hydroxyethyl-cyclopent-3(4)-en-1,2-diol (compound of Formula 1 where X is NH2 and R2 is H) prepared in the above Example 3, (1S,2R,5S)-4-Fluoro-3-hydroxyethyl-5-(uracil-1-yl)-cyclopent-3(4)-en-1,2-diol (Compound 10) prepared in the above Example 4, (1S,2R,5S)-5-(Cytosine-1-yl)-4-fluoro-3-hydroxyethyl-cyclopent-3(4)-en-1,2-diol (Compound 11) prepared in the above Example 5, Fluoro-neplanocin A, and Homoneplanocin A was analyzed by SRB (sulphorhodamine B) assay according to the publicly known method in the literature.
(§5) Human cancer cell strains increased exponentially were divided into the 96-well plates at the density of 2×10^3 to 3×10^3 cells/well and processed with the compounds of the various concentrations in the present invention on the next day. 0.25% DMSO was used as a control group. Three experiments were performed for each process. The cells were fixed with 10% trichloro-acetic acid at 96 hours after processing with the compound and SRB analysis was carried out. Optical density was measured at 530 nm with Benchmark PlusMicroplate Reader (Bio-Rad Laboratories, Hercules, Calif.). The concentration of the drug to inhibit the cell growth by 50% […] was measured with Kaledia Graph (Synergy software, Reading, Pa.).

[2] = test system: K562 (blood cancer); assay: SRB cell growth inhibition assay, K562; settings: Homo sapiens, 96 hours, read-out: concentration of the drug to inhibit the cell growth by 50%
From the text: [Worded in the source for another cell line; this cell line is reported under the same test.] as §1, §2, §3, §4, §5

[3] = test system: PC-3 (prostate cancer); assay: SRB cell growth inhibition assay, PC-3; settings: Homo sapiens, 96 hours, read-out: concentration of the drug to inhibit the cell growth by 50%
From the text: as §1, §2, §3, §4, §5

[4] = test system: A549 (lung cancer); assay: SRB cell growth inhibition assay, A549; settings: Homo sapiens, 96 hours, read-out: concentration of the drug to inhibit the cell growth by 50%
From the text: as §1, §2, §3, §4, §5

[5] = test system: HCT-116 (colorectal cancer); assay: SRB cell growth inhibition assay, HCT-116; settings: Homo sapiens, 96 hours, read-out: concentration of the drug to inhibit the cell growth by 50%
From the text: as §1, §2, §3, §4, §5

[6] = test system: T47D (breast cancer); assay: SRB cell growth inhibition assay, T47D; settings: Homo sapiens, 96 hours, read-out: concentration of the drug to inhibit the cell growth by 50%
From the text: [Worded in the source for another cell line; this cell line is reported under the same test.] as §1, §2, §3, §4, §5

Compound | IC50 [1] [µM] | IC50 [2] [µM] | IC50 [3] [µM] | IC50 [4] [µM] | IC50 [5] [µM] | IC50 [6] [µM]
O=c1ccn([C@@H]2C(F)=C(CCO)[C@@H](O)[C@H]2O)c(=O)[nH]1 [Compound 10, (1S,2R,5S)-4-Fluoro-3-hydroxyethyl-5-(uracil-1-yl)-cyclopent-3(4)-en-1,2-diol] | > 10 | > 10 | > 10 | > 10 | > 10 | > 10
Nc1ccn([C@@H]2C(F)=C(CCO)[C@@H](O)[C@H]2O)c(=O)n1 [Compound 11, (1S,2R,5S)-5-(Cytosine-1-yl)-4-fluoro-3-hydroxyethyl-cyclopent-3(4)-en-1,2-diol] | > 10 | > 10 | > 10 | > 10 | > 10 | > 10
Nc1ncnc2c1ncn2[C@@H]1C(F)=C(CCO)[C@@H](O)[C@H]1O [Compound of Formula 1, (1S,2R,5S)-5-(6-Aminopurine-9-yl)-4-fluoro-3-hydroxyethyl-cyclopent-3(4)-en-1,2-diol] | 0.37 | 0.13 | 2.39 | 0.62 | 1.1 | 2.83
Nc1ncnc2c1ncn2C1C(F)=C(CO)C(O)C1O (stereo not drawn) [Fluoro-neplanocin A, reference compound] | 1.3 | 2.2 | 3.1 | 2.6 | 1.4 | 3.6
Nc1ncnc2c1ncn2C1C=C(CCO)C(O)C1O (stereo not drawn) [Homoneplanocin A] | > 10 | > 10 | > 10 | > 10 | > 10 | > 10
